Patent US9868736B2, “Deubiquitinase inhibitors and methods for use of the same” (THE REGENTS OF THE UNIVERSITY OF MICHIGAN, priority 2013, dated 2018)
“Also recorded” adds a separate entry of the source.

Experiments:
[1] = test system: vemurafenib sensitive and resistant A375 melanoma cells; test: in vitro anti-tumor efficacy in A375 melanoma cells; type: cell-based; details: Homo sapiens, A-375
From the text: (§1) Similar results were obtained in A375R Usp5 KD cells treated with a MEK inhibitor.

[2] = target: T1, Usp5 (Homo sapiens, UniProt P45974); test: DUB activity (HA-Ub labelling) in treated cells; type: cell-based
T1 construct: endogenous in cells; host or cells: A375 and A375R melanoma cells (also SK-Mel28)
T1 sequence (P45974 1-858): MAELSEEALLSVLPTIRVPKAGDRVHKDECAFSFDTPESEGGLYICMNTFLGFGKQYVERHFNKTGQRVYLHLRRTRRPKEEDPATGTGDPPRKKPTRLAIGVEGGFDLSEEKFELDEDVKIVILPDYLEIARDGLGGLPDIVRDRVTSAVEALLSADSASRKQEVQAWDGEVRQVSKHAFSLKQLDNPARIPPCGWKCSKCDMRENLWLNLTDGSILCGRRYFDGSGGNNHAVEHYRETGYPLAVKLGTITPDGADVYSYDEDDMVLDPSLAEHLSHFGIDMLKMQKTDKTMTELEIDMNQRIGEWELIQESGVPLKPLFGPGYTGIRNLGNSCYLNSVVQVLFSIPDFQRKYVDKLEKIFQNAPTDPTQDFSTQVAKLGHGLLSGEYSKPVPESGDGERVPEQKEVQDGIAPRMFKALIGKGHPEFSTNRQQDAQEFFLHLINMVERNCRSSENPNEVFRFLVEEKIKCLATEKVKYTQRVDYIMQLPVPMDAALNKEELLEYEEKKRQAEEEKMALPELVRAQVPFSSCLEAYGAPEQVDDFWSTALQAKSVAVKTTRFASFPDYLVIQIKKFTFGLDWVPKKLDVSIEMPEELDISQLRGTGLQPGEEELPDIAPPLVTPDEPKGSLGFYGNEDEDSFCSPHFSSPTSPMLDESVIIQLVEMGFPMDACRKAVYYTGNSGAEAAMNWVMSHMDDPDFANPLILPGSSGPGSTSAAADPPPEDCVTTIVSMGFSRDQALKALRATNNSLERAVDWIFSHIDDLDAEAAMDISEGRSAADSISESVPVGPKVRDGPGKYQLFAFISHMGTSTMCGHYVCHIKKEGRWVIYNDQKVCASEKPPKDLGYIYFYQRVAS
Method: DUB activity was assessed by HA blotting and confirmed by monitoring a DUBs mobility shift due to its covalent modification with HA-Ub. DUB inhibition was detected in vemurafenib-responsive (SK-Mel28 and A375) cells and we noted a consistent change in a DUB (100 kDa) identified as Usp5 by LC/MS/MS of the excised protein band (data not shown) and direct immunoblotting. […] DUB activity was also compared in control and BRAF knockdown (KD) cells. BRAF shRNA reduced pERK levels and Usp5 activity.
as §1

[3] = test system: Mcl-1, PARP; test: Mcl-1 level and PARP cleavage in treated tumor cells; type: cell-based
[4] = test system: p53, pStat3, pERK, NOXA, PARP, Bid; test: signalling and apoptosis markers in A375 cells; type: cell-based
From the text: as §1

[5] = test system: A375 tumors; test: A375 melanoma tumor growth in NSG mice; type: in vivo
Method: G9 suppresses Usp9x activity in A375 melanoma cells. The effect of G9 on the growth of A375 tumors in NSG mice was examined. Two million A375 cells in Matrigel: cell culture media (1:1) in 0.1 mL were injected subcutaneously in the dorsal region of 9 female NSG mice. After tumor growth to a measurable level (2 weeks post inoculation) animals were separated into 3 groups and mice received 0, 7.5 or 15 mg/kg G9 (prepared as described above) daily by IP injection for 8 days. Tumor volume (left) and animal weight (right) were measured every other day throughout the treatment interval and are reported in FIG. 6. […] Three animals per treatment group were evaluated in this study. Each data point represents the average+/−S.D. of measurements made in three mice. P-values were calculated using GraphPad Instat. P-values<0.05 are considered significant.
A375 tumors grown as subcutaneous implants in NSG mice were separated into three groups and received once daily ip injections with vehicle control (PEG300/DMSO) or G9 at doses of 7.5 or 15 mg/kg. Tumor growth, animal weight, behavior and mobility were monitored during treatment.

[6] = plasma level in mice after IV, PO or IP administration (LC/MS); type: in vivo, Balb/c mice; details: for concentration at 0.5 h / concentration at 2 h / concentration at 4 h / concentration at 7 h / AUC(0-t) / half-life: Balb/c, mouse, plasma
Method: To determine whether G9 or 067 had anti-tumor activity in animals, we first assessed their properties in mice when introduced intravenously (IV) or by oral gavage (PO). G9 or 067 was administered once to two mice per group at the indicated dosage level and route (IV or PO) and plasma was collected at the time point indicated after administration. Compound concentration in the plasma was measured by high performance liquid chromatography coupled with mass spectroscopy detection (LC/MS).
Balb/c mice were treated with either 067 or G9 dissolved in dimethyl sulfoxide: polyethylene glycol 300 (1:1) and administered as indicated. The level of each compound in the plasma of each mouse at the time point indicated is shown in the line graph. The area under the curve (AUC) was calculated and tabulated below each line graph. […] The level of each compound in the plasma of each mouse at the time point indicated is shown Table 2. Several pharmacokinetic parameters were also calculated. […] The half-life of G9 was similar to 067 when administered by IP injection (30-60 min). Based on these assessments, G9 was further evaluated for anti-tumor activity in mice.

[7] = test system: Sindbis virus, Tulane virus, LaCrosse virus, Norwalk virus replicon; test: antiviral screen against a variety of viruses; type: cell-based; details: Vero (Sindbis), LLC-MK (Tulane), Be2-c (LaCrosse), Norwalk virus replicon-containing cells, FIG. 9
[8] = vemurafenib sensitive and resistant A375 cells
[9] = 7.5 or 15 mg/kg daily IP for 8 days
[10] = intravenous, 10 mg/kg, IV1 10 mg/kg
[11] = intravenous, 10 mg/kg, IV2 10 mg/kg

For `CCCC(NC(=O)/C(C#N)=C/c1nc(Cl)ccc1Cl)c1ccc(OCCN2CCOCC2)cc1` (stereo not drawn) [Compound G9, (E)-2-Cyano-3-(3,6-dichloropyridin-2-yl)-N-(1-(4-(2-morpholinoethoxy)phenyl)butyl)acrylamide], the IC50 [1] was 1 µM, the Usp5 inhibition ([2]; myeloma (MM1.S) cells, various concentrations, FIG. 10) was “inhibits Usp9x and Usp5” and the Usp5 activity [2, 8] was “reduced Usp5 (and Usp9x) activity in both cell types”. The “caspase activity (PARP cleavage)” value ([3]; MM1.ST cells, 5 μM) was “activation of caspase activity”, the Mcl-1 level ([3]; MM1.ST or PCL cells, 5 μM) was “reduction in Mcl-1” and the “level of Mcl-1” value ([3]; Z138 lymphoma cells, 1.25, 2.5 and 5 μM, 4 hours) was “reduce the level of a downstream target of Usp9x”. The “pERK, pStat3 and NOXA levels” value ([4]; A375R cells) was “reduced pERK, pStat3 and elevated NOXA levels”, the “PARP and Bid cleavage” value ([4]; A375R cells, combined with vemurafenib or 5FU) was “induced PARP and Bid cleavage” and the p53 levels [4, 8] was “increased p53 levels”. The pStat3 inhibitory activity [4, 8] was “retained pStat3 inhibitory activity”, the “side effects: behavior and mobility” value ([5]; 7.5 or 15 mg/kg daily IP) was “did not observe changes in behavior or mobility; also recorded: did not have any notable side effects” and the A375 tumor growth [5, 9] was “suppressed A375 tumor growth; also recorded: completely suppressed tumor growth; also recorded: reduced tumor growth”. The animal weight [5, 9] was “modest impact on animal weight; also recorded: not significantly different”, the concentration at 0.5 h [6, 10] was 1.88 µg/mL and the concentration at 2 h [6, 10] was 0.395 µg/mL. It also gave a concentration at 4 h [6, 10] of 0.126 µg/mL, a concentration at 7 h [6, 10] of 0.0386 µg/mL and a concentration at 0.5 h [6, 11] of 1.22 µg/mL. For the same molecule, the concentration at 2 h [6, 11] was 0.52 µg/mL, the concentration at 4 h [6, 11] was 0.289 µg/mL and the concentration at 7 h [6, 11] was 0.208 µg/mL. The AUC(0-t) ([6]; iv, 10 mg/kg, IV1 10 mg/kg) was 3.73 µg·h/mL, the AUC(0-t) ([6]; iv, 10 mg/kg, IV2 10 mg/kg) was 3.57 µg·h/mL and the concentration at 0.5 h ([6]; oral, 30 mg/kg, PO1 30 mg/kg) was 0.0608 µg/mL. For the same molecule, the concentration at 2 h ([6]; oral, 30 mg/kg, PO1 30 mg/kg) was 0.0358 µg/mL, the concentration at 4 h ([6]; oral, 30 mg/kg, PO1 30 mg/kg) was 0.0445 µg/mL and the concentration at 7 h ([6]; oral, 30 mg/kg, PO1 30 mg/kg) was 0.0376 µg/mL. The concentration at 0.5 h ([6]; oral, 30 mg/kg, PO2 30 mg/kg) was 0.0787 µg/mL, the concentration at 2 h ([6]; oral, 30 mg/kg, PO2 30 mg/kg) was 0.059 µg/mL and the concentration at 4 h ([6]; oral, 30 mg/kg, PO2 30 mg/kg) was 0.0571 µg/mL. For the same molecule, the concentration at 7 h ([6]; oral, 30 mg/kg, PO2 30 mg/kg) was 0.0161 µg/mL, the AUC(0-t) ([6]; po, 30 mg/kg, PO1 30 mg/kg) was 0.291 µg·h/mL and the AUC(0-t) ([6]; po, 30 mg/kg, PO2 30 mg/kg) was 0.349 µg·h/mL. The half-life ([6]; mice, IP injection) was 0.5 to 1 h, the half-life ([6]; mice, IV or PO study of Table 2) was 1.5 to 2 h and the “bio-availability following IV administration” value ([6]; mice, IV) was “bio-available following IV administration”. The “peak plasma levels, G9 compared with 067” value ([6]; mice, IV) was “higher peak levels”, the oral bio-availability ([6]; mice, PO) was “poor oral bio-availability” and the “antiviral activity against a variety of viruses” value [7] was “mild to high antiviral activity; also recorded: antiviral activity against Sindbis virus and La Crosse virus”.
